Here are results for 41 molecules from patent US7846963B2, “2-oxo-heterocyclic compounds and the pharmaceutical compositions comprising the same” (Korea Research Institute of Bioscience and Biotechnology, priority 2003, dated 2010).

pIC50: −log10 of the molar value.

This assay concerns production of TNF-alpha in RAW 264.7 cells. The experiment in a line: Inhibition of TNF-alpha production in LPS-treated RAW 264.7 cells, ELISA of culture supernatant. In kind it is cell-based, mouse. Particulars: Mus musculus, RAW264.7, Table 23, LPS 0.3 μg/ml, 24 hours, compounds up to 10 μM, IC50 unit inferred. How it is done: To test the inhibiting activity of the compounds prepared from above Examples on the production of TNF-alpha, the concentration of TNF-alpha in the cell supernatant was measured.
Each 200 μl of RAW 264.7 cells (ATCC, USA), a mouse macrophage cell line was seeded onto each well of 96-well microtiter plate (Nunc, Sweden) to the concentration ranging from 1×10^6 cells/ml to 5×10^6 cells/ml, and incubated in DMEM (Dulbeco's modified eagles medium) media containing 5% FBS (fetal bovine serum) at 37° C. in 5% CO2 incubator.
Various concentrations of the compounds of the present invention ranging from […] to 10 μM and LPS (Sigma, USA) in the final concentration of 0.3 μg/ml were treated to activated cell simultaneously. The treated cells were cultured at 37° C. for 24 hours in 5% CO2 incubator and the cultured cells were collected after the cultivation
And then the concentration of TNF-alpha secreted from the culture supernatant of RAW 264.7 cells was determined by ELISA according to the manufacture's instruction (R&D Systems, Minneapolis, Minn.).
The result was shown in Table 23 (AA: IC50's<1, A: IC50's<5, B: IC50's<10, C: IC50's>10).
Molecule `O=C(CCC1=CCN(CCCCc2ccccc2)C1=O)NO` [Example 5, N-hydroxy-3-[2-oxo-1-(4-phenyl-butyl)-2,5-dihydro-1H-pyrrol-3-yl]-propionamide] had a pIC50 greater than 5.30.

`Cc1ccc(S(=O)(=O)Nc2ccc(CN3CC=C(CCC(=O)NO)C3=O)cc2)cc1` [Example 19, N-hydroxy-3-{2-oxo-1-[4-(toluene-4-sulfonylamino)-benzyl]-2,5-dihydro-1H-pyrrol-3-yl}-propionamide] gave a pIC50 greater than 5.00.

As to `CC(=O)Nc1ccc(CN2CCC=C(CCC(=O)O)C2=O)cc1` [Example 78, 3-[1-(4-acetylamino-benzyl)-2-oxo-1,2,5,6-tetrahydro-pyridin-3-yl]-propionic acid], the pIC50 is greater than 5.30.

For the molecule `O=C(CCC1CCCN(CCc2ccccc2)C1=O)NO` (centres unmarked) [Example 81, N-hydroxy-3-(2-oxo-1-phenethyl-piperidine-3-yl)-propionamide], the pIC50 was greater than 5.30.

As to `O=C(CCC1=CCN(CCc2cccs2)C1=O)NO` [Example 54, N-hydroxy-3-[2-oxo-1-(2-thiophen-2-yl-ethyl)-2,5-dihydro-1H-pyrrol-3-yl]-propionamide], the pIC50 is greater than 5.30.

`O=C(CCC1=CCN(Cc2ccc(Br)cc2)C1=O)NO` [Example 12, 3-[1-(4-bromo-benzyl)-2-oxo-2,5-dihydro-1H-pyrrol-3-yl]-N-hydroxy-propionamide] had a pIC50 greater than 6.00.

In turn, `COc1ccc(CN2CC=C(CC(=O)NO)C2=O)c(OC)c1` [Example 21, 2-[1-(2,4-dimethoxy-benzyl)-2-oxo-2,5-dihydro-1H-pyrrol-3-yl]-N-hydroxy-acetamide] had a negative logarithm of the IC50 (pIC50) of less than 5.00.

Consider `O=C(CCC1=CCCN(Cc2ccc3ccccc3c2)C1=O)NO` [Example 103, N-hydroxy-3-(1-(naphthalene-2-yl-methyl)-2-oxo-1,2,5,6-tetrahydro-pyridin-3-yl)-propionamide], for which the pIC50 is greater than 5.30.

The molecule `O=C(CCC1=CCN(CCc2ccccc2[N+](=O)[O-])C1=O)NO` [Example 31, N-hydroxy-3-{1-[2-(2-nitro-phenyl)-ethyl]-2-oxo-2,5-dihydro-1H-pyrrol-3-yl}-propionamide] showed a pIC50 of less than 5.00.

As to `O=C(CCC1=CCCN(Cc2ccc(NC(=O)c3ccccc3)cc2)C1=O)NO` [Example 75, N-4-[5-(2-hydroxycarbamoyl-ethyl)-6-oxo-3,6-dihydro-2-pyridin-1-yl-methyl]-phenyl-benzamide], the pIC50 is less than 5.00.

The molecule `O=C(CCC1=CCN(Cc2ccc([N+](=O)[O-])cc2)C1=O)NO` [Example 15, N-hydroxy-3-[1-(4-nitro-benzyl)-2-oxo-2,5-dihydro-1H-pyrrol-3-yl]-propionamide] gave a pIC50 greater than 5.00.

`COc1ccccc1CN1CC=C(CCC(=O)NO)C1=O` [Example 9, N-hydroxy-3-[1-(2-methoxy-benzyl)-2-oxo-2,5-dihydro-1H-pyrrol-3-yl]-propionamide] showed a pIC50 greater than 5.00.

Consider `O=C(CCC1=CCCN(CCc2ccccc2)C1=O)NO` [Example 60], for which the negative logarithm of the IC50 (pIC50) is greater than 5.30.

The molecule `O=C(CC1=CCCN(CCCc2ccccc2)C1=O)NO` [Example 85, N-hydroxy-2-[2-oxo-1-(3-phenyl-propyl)-1,2,5,6-tetrahydro-pyridin-3-yl]-N-hydroxy-acetamide] showed a negative logarithm of the IC50 (pIC50) greater than 5.00.

In turn, `O=C(CC1CCN(Cc2ccccc2)C1=O)NO` (centres unmarked) [Example 25, 2-(1-benzyl-2-oxo-pyrrolidin-3-yl)-N-hydroxy-acetamide] had a pIC50 of less than 5.00.

`O=C(CCC1=CCN(CCc2ccccc2F)C1=O)NO` [Example 28, 3-{1-[2-(2-fluoro-phenyl)-ethyl]-2-oxo-2,5-dihydro-1H-pyrrol-3-yl}-N-hydroxy-propionamide] showed a pIC50 greater than 5.30.

Regarding `O=C(O)CC1=CCCN(Cc2ccccc2)C1=O` [Example 88, (1-benzyl-2-oxo-1,2,5,6-tetrahydro-pyridin-3-yl)-acetic acid], the pIC50 is greater than 6.00.

As for `O=C(CCC1=CCN(CCc2ccccc2Br)C1=O)NO` [Example 34, 3-{1-[2-(2-bromo-phenyl)-ethyl]-2-oxo-2,5-dihydro-1H-pyrrol-3-yl}-N-hydroxy-propionamide], the pIC50 was greater than 5.30.

Take `COc1ccc(CN2CCC(CC(=O)NO)C2=O)c(OC)c1` (centres unmarked) [Example 26, 2-[1-(2,4-dimethoxy-benzyl)-2-oxo-pyrrolidin-3-yl]-N-hydroxy-acetamide]: the pIC50 was less than 5.00.

For the molecule `O=C(CCCC1=CCCN(CCCCc2ccccc2)C1=O)NO` [Example 98], the pIC50 was greater than 5.30.

`O=C(O)CC1=CCCN(CCCCc2ccccc2)C1=O` [Example 91, [2-oxo-1-(4-phenyl-butyl)-1,2,5,6-tetrahydro-pyridin-3-yl)-acetic acid] showed a pIC50 greater than 5.00.

As to `O=C(CC1=CCN(CCCCc2ccccc2)C1=O)NO` [Example 23, N-hydroxy-2-[2-oxo-1-(4-phenyl-butyl)-2,5-dihydro-1H-pyrrol-3-yl]-acetamide], the pIC50 is less than 5.00.

Consider `O=C(CCC1=CCCN(Cc2ccc([N+](=O)[O-])cc2)C1=O)NO` [Example 59, N-hydroxy-3-[1-(4-nitro-benzyl)-2-oxo-1,2,5,6-tetrahydro-pyridin-3-yl)-propionamide], for which the pIC50 was greater than 5.30.

Take `O=C(CCC1=CCN(CCCc2ccccc2)C1=O)NO` [Example 4, N-hydroxy-3-[2-oxo-1-(3-phenyl-propyl)-2,5-dihydro-1H-pyrrol-3-yl]-propionamide]: the pIC50 is greater than 6.00.

`C=CCN1CC=C(CCC(=O)NO)C1=O` [Example 51, 3-(1-allyl-2-oxo-2,5-dihydro-1H-pyrrol-3-yl)-N-hydroxy-propionamide] gave a pIC50 of less than 5.00.

In turn, `O=C(CC1=CCCN(CCCCc2ccccc2)C1=O)NO` [Example 86, N-hydroxy-2-[2-oxo-1-(4-phenyl-butyl)-1,2,5,6-tetrahydro-pyridin-3-yl]-N-hydroxy-acetamide] showed a pIC50 greater than 5.30.

The molecule `Cc1ccc(CN2CC=C(CCC(=O)NO)C2=O)cc1` [Example 8, N-hydroxy-3-[1-(4-methyl-benzyl)-2-oxo-2,5-dihydro-1H-pyrrol-3-yl]-propionamide] showed a pIC50 greater than 5.30.

Regarding `O=C(CCC1=CCN(CCc2cccc([N+](=O)[O-])c2)C1=O)NO` [Example 32, N-hydroxy-3-{1-[2-(3-nitro-phenyl)-ethyl]-2-oxo-2,5-dihydro-1H-pyrrol-3-yl}-propionamide], the pIC50 is less than 5.00.

In the case of `COc1ccc(CN2CCC=C(CC(=O)NO)C2=O)c(OC)c1` [Example 82, 2-[1-(2,4-dimethoxy-benzyl)-2-oxo-1,2,5,6-tetrahydro-pyridin-3-yl]-N-hydroxy-acetamide], the pIC50 is greater than 5.30.

`Cc1cccc(CN2CC=C(CCC(=O)NO)C2=O)c1` [Example 7, N-hydroxy-3-[1-(3-methyl-benzyl)-2-oxo-2,5-dihydro-1H-pyrrol-3-yl]-propionamide]: the pIC50 is greater than 5.30.

Molecule `O=C(CCC1=CCCN(Cc2ccccc2)C1=O)NO` [Example 58, N-hydroxy-3-(1-benzyl-2-oxo-1,2,5,6-tetrahydro-pyridin-3-yl)-propionic acid] showed a negative logarithm of the IC50 (pIC50) greater than 5.30.

For `COc1ccc(CCCN2CC=C(CCC(=O)NO)C2=O)cc1` [Example 46, N-hydroxy-3-{1-[3-(4-methoxy-phenyl)-propyl]-2-oxo-2,5-dihydro-1H-pyrrol-3-yl]-propionamide], the pIC50 was greater than 5.00.

As for `O=C(CC1CCCN(CCc2ccccc2)C1=O)NO` (centres unmarked) [Example 93, (2-oxo-1-phenethyl-piperidine-3-yl)-N-hydroxy-acetamide], the pIC50 is greater than 5.30.

As to `COc1ccc(CN2CCC=C(CC(=O)O)C2=O)c(OC)c1` [Example 87, [1-(2,4-dimethoxy-benzyl)-2-oxo-1,2,5,6-tetrahydro-pyridin-3-yl]-acetic acid], the pIC50 is greater than 6.00.

`CS(=O)(=O)N(c1ccc(CN2CCC=C(CCC(=O)NO)C2=O)cc1)S(C)(=O)=O` [Example 76, N-hydroxy-3-[1-(4-dimethylsulfonylamino-benzyl)-2-oxo-1,2,5,6-tetrahydro-pyridin-3-yl]-propionamide] had a pIC50 of less than 5.00.

In the case of `COc1ccc(CN2CCC=C(CCC(=O)O)C2=O)c(OC)c1` [Example 63, 3-[1-(2,4-dimethoxybenzyl)-2-oxo-1,2,5,6-tetrahydro-pyridin-3-yl]-propionic acid], the negative logarithm of the IC50 (pIC50) is less than 5.00.

`O=C(CCC1=CCN(Cc2ccc3ccccc3c2)C1=O)NO` [Example 49, N-hydroxy-3-(1-naphthalene-2-ylmethyl-2-oxo-2,5-dihydro-1H-pyrrol-3-yl)-propionamide] had a pIC50 greater than 6.00.

Molecule `O=C(CCCC1=CCCN(CCCc2ccccc2)C1=O)NO` [Example 97, N-hydroxy-4-[2-oxo-1-(3-phenyl-propyl)-1,2,5,6-tetrahydro-pyridin-3-yl]-butylamide] had a pIC50 greater than 5.30.

For the molecule `O=C(O)CCC1=CCCN(Cc2ccccc2)C1=O` [Example 64, 3-(1-benzyl-2-oxo-1,2,5,6-tetrahydro-pyridin-3-yl)-propionic acid], the pIC50 was less than 5.00.

Take `CC(=O)Nc1ccc(CN2CCC=C(CCC(=O)NO)C2=O)cc1` [Example 74, 3-[1-(4-acetylamino-benzyl)-2-oxo-1,2,5,6-tetrahydro-pyridin-3-yl]-N-hydroxy-propionamide]: the pIC50 was less than 5.00.

On to `O=C(CCC1=CCN(CCc2cccc(F)c2)C1=O)NO` [Example 29, 3-{1-[2-(3-fluoro-phenyl)-ethyl]-2-oxo-2,5-dihydro-1H-pyrrol-3-yl}-N-hydroxy-propionamide], for which the pIC50 is greater than 5.30.
